Data published in US9120815B2, “Solid state forms of macrocyclic kinase inhibitors” (Tragara Pharmaceuticals, Inc., priority 2010, dated 2015).

What was measured:
JAK V617F = JAK V617F (Homo sapiens, UniProt O60674, V617F); details: in vitro; cited from earlier work
[1] = Gravimetric Vapour Sorption (GVS) at 25° C.; type: physicochemical
Protocol: Sorption isotherms were obtained using a SMS DVS Intrinsic moisture sorption analyser, controlled by SMS Analysis Suite software. The sample temperature was maintained at 25° C. by the instrument controls. The humidity was controlled by mixing streams of dry and wet nitrogen, with a total flow rate of 200 ml.min^−1. The relative humidity was measured by a calibrated Rotronic probe (dynamic range of 1.0-100% RH), located near the sample. The weight change, (mass relaxation) of the sample as a function of % RH was constantly monitored by the microbalance (accuracy ±0.005 mg). Typically 5-20 mg of sample was placed in a tared mesh stainless steel basket under ambient conditions. The sample was loaded and unloaded at 40% RH and 25° C. (typical room conditions). A moisture sorption isotherm was performed as outlined below (2 scans giving 1 complete cycle). The standard isotherm was performed at 25° C. at 10% RH intervals over a 0.5-90% RH range. The sample was recovered after completion of the isotherm and re-analysed by XRPD.

DU145 = DU145 cell line; cited from earlier work
[2] = Log P determination by potentiometric titration; type: physicochemical
Source text: Data were collected by potentiometric titration on a Sirius GlpKa instrument using three ratios of octanol:ionic-strength adjusted (ISA) water to generate Log P, Log Pion, and Log D values. The data were refined using Refinement Pro software v2.2. Prediction of Log P values was made using ACD v12 software.

MV4-11 = MV4-11 cell line; cited from earlier work
Colo205 = Colo205 cell line; cited from earlier work
FLT3 = molecular target: T1, FLT3 (Homo sapiens, UniProt P36888); details: in vitro; cited from earlier work
T1 sequence (P36888 27-993): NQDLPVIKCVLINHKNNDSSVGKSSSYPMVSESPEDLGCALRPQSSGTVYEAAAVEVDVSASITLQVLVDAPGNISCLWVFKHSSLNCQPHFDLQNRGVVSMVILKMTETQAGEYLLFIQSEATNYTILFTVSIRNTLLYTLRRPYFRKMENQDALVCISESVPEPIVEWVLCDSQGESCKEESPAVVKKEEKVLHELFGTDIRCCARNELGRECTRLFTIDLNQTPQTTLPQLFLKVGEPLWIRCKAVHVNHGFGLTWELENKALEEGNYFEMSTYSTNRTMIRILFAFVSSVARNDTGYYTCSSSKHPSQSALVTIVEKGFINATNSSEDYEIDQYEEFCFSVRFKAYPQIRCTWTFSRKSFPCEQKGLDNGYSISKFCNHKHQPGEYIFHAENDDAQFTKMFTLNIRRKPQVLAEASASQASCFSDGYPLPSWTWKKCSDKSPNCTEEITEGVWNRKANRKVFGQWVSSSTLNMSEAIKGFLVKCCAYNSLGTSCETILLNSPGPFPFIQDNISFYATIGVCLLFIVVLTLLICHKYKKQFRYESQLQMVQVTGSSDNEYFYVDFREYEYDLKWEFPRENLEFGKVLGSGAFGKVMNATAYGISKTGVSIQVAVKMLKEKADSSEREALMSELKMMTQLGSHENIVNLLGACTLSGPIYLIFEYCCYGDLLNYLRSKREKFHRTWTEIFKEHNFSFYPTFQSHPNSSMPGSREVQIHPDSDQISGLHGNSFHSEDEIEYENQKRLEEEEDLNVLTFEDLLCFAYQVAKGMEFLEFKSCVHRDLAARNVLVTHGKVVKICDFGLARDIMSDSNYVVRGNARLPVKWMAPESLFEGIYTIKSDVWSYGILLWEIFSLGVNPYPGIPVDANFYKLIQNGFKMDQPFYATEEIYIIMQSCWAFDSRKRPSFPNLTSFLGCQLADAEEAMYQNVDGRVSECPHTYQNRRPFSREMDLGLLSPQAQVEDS

HL60 = HL60 cell line; cited from earlier work
[3] = Thermodynamic aqueous solubility; type: physicochemical
Protocol: Aqueous solubility was determined by suspending sufficient compound in water to give a maximum final concentration of 210 mg·ml^−1 of the parent free-form of the compound. The suspension was equilibrated at 25° C. for 24 hours then the pH was measured. The suspension was then filtered through a glass fibre C filter into a 96 well plate. The filtrate was then diluted by a factor of 101. Quantitation was by HPLC with reference to a standard solution of approximately 0.1 mg·ml^−1. in DMSO. Different volumes of the standard, diluted and undiluted sample solutions were injected. The solubility was calculated using the peak areas determined by integration of the peak found at the same retention time as the principal peak in the standard injection.
Analysis was performed on an Agilent HP1 100 series system equipped with a diode array detector and using ChemStation software vB.02.01-SR1.

HEL92.1.7 = HEL92.1.7 cell line; cited from earlier work
JAK2 = JAK2 (Homo sapiens, UniProt O60674); details: in vitro; cited from earlier work
[4] = Stability in humidity chamber 40° C./75% R.H. (XRPD, HPLC); type: physicochemical
Protocol: After 2 days, the solids were isolated by filtration under vacuum at RT to be characterised by XRPD analysis. Each new crystalline solid phase detected was characterised by ^1H NMR and TGA-DSC analyses in order to determine if salt formation had occurred and whether the material was a solvate. At this stage, each salt identified was then analysed by HPLC to determine the chemical purity prior to being stored in the humidity chamber (40° C./75% R.H.) to assess its stability.

JAK2, sequence (O60674 whole entry): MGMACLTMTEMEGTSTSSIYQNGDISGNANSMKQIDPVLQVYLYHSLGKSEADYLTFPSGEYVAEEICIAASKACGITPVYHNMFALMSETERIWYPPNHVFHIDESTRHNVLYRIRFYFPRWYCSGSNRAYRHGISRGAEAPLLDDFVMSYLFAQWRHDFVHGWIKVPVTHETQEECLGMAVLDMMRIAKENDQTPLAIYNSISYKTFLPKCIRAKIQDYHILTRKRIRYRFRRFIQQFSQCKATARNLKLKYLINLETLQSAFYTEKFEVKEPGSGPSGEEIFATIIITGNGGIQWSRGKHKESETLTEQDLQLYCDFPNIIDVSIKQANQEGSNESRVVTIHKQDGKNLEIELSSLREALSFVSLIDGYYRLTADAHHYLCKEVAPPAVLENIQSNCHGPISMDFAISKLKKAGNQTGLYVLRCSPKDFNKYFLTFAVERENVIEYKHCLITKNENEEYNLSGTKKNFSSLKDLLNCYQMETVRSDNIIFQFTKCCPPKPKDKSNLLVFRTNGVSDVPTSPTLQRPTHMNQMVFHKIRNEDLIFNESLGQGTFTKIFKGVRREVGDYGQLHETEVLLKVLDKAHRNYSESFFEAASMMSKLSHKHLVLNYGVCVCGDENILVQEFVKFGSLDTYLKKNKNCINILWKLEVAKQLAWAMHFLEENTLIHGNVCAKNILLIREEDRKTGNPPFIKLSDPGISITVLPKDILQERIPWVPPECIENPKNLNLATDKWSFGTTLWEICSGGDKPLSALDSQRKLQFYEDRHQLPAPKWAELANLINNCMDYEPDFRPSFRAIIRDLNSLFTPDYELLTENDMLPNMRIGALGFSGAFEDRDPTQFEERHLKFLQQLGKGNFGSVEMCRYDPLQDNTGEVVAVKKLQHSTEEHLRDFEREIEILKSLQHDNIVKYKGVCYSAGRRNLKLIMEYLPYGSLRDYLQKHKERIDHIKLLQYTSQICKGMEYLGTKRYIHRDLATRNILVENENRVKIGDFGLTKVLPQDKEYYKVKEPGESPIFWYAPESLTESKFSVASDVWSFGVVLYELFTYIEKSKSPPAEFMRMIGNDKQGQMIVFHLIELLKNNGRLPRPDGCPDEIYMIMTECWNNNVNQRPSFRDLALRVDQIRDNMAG
JAK V617F, sequence (O60674 whole entry V617F): as the sequence (O60674 whole entry) above, with V617F counted along it

changes in the XRPD pattern after the GVS experiment [1]: between 0 and 90% relative humidity. No | hydration phenomenon in GVS [1]: GVS analysis was carried out at 25 °C No | logD ([2]; octanol/ionic-strength adjusted (ISA) water, pH 7.4, read-out: Measured LogD7.4): 3.34 | logP ([2]; octanol/ionic-strength adjusted (ISA) water, octanol:ISA water, read-out: Measured LogP): 4.72 | Measured LogPion ([2]; octanol:ISA water): 1.14 | solubility at 24 h ([3]; 25 °C, thermodynamic from solid, water): < 1 µg/mL | final pH ([3]; pH of the aqueous suspension after equilibration): 8.9 | aqueous solubility ([3]; water, 25° C., 24 hours): < 1 µg/mL | XRPD stability (40° C./75% R.H.) ([4]; 6 weeks): No changes were observed in the humidity
Compound: CN1C/C=C/CCOc2cccc(c2)-c2ccnc(n2)Nc2cccc(c2)C1 [Compound I, 14-methyl-20-oxa-5,7,14,27-tetraazatetracyclo-[19.3.1.12,6.18,12]heptacosa-1(25),2,4,6,8,10,12(26),16,21,23-decaene]
IC50 (JAK V617F): < 1000 nM | GI50 (DU145): < 1000 nM | GI50 (MV4-11): < 1000 nM | GI50 (Colo205): < 1000 nM | IC50 (FLT3): < 1000 nM | GI50 (HL60): < 1000 nM | GI50 (HEL92.1.7): < 1000 nM | IC50 (JAK2): < 1000 nM | HPLC Purity post stability (40° C./75% R.H.) ([4]; after 6 weeks in the humidity chamber): purity of Compound I was measured at 97.0% area
